Tests used:
cyclooxygenase-2 = molecular target: T1, cyclooxygenase-2 (Mus musculus, UniProt Q05769); experiment: Cyclooxygenase-2 inhibition in Raw 264.7 cells (interferon γ/LPS induced, PGE2 EIA); format: cell-based; conditions: for Inhibitory effects of cyclooxygenase (COX): COX-2 (Raw 264.7): Raw 264.7 cells; for selectivity of cyclooxygenase-2 compared with standard substance: COX-2 versus COX-1, compared with SC-58635
T1 construct: endogenous in cells; host or cells: Raw 264.7 (Korean cell line bank), induced with interferon γ and LPS
T1 sequence (Q05769 18-604): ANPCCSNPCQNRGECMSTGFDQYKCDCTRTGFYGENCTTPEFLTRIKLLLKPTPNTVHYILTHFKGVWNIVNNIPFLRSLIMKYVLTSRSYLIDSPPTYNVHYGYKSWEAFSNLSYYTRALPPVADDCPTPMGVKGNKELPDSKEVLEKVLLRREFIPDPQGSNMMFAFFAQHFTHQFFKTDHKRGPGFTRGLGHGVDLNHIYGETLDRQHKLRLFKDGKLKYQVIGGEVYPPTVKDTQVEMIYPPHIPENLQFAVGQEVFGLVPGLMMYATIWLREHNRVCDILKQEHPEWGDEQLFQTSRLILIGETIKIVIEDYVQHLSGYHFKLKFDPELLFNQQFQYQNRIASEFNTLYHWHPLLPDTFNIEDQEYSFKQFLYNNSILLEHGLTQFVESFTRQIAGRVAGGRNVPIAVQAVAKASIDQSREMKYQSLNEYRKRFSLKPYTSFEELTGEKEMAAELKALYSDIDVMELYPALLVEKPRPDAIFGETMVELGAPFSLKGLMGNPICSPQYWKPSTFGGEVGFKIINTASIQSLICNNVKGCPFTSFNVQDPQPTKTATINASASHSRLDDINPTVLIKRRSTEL
Protocol: (§1) In order to investigate pharmacologically the selective inhibition activity against cyclooxygenase-2 enzyme, the inhibitive effects against cyclooxygenase-1 and cyclooxygenase-2 were measured by two methods as follows.
And then, each samples were replaced with new media and cultured for 30 minutes. In addition, the samples were treated with 100 units/ml of interferon γ and 100 ng/ml of lipopolysaccharide (LPS), and cultured for 18 hours. Then, the media was transferred to other tubes and the PGE 2 was quantitated by using EIA kit from Cayman Chemicals.

cyclooxygenase-1 = molecular target: T2, cyclooxygenase-1 (Homo sapiens, UniProt P23219); experiment: Cyclooxygenase-1 inhibition in U-937 cells (PGE2 quantitation after arachidonic acid); format: cell-based; conditions: for Inhibitory effects of cyclooxygenase (COX): COX-1 (U-937): U-937 cells; for inhibition effect against cyclooxygenase-1 compared with standard substance SC-58635: in words, compared with SC-58635
T2 construct: endogenous in cells; host or cells: U-937 (Korean cell line bank)
T2 sequence (P23219 24-599): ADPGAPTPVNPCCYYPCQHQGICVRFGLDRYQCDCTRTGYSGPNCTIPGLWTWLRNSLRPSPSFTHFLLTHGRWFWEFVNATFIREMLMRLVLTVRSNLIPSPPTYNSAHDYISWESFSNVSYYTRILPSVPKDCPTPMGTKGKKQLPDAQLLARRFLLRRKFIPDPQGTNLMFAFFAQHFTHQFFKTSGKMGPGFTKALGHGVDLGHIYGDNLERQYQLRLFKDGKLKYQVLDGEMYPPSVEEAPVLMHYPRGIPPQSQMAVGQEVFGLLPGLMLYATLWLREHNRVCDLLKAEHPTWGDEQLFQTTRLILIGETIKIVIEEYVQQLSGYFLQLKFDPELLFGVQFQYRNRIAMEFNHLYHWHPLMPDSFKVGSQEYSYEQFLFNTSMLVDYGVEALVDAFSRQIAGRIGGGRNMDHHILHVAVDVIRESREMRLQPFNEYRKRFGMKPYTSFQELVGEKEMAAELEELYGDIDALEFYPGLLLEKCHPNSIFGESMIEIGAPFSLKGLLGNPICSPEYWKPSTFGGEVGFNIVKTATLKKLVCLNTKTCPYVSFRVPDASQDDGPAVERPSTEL
Protocol: as §1
Then, the pellet was diluted with 1×HBSS (Hank's balanced salt solutin) at the concentration of 1×10^6 cells/ml, and 1 ml of them was transferred into each of 12-well plates, and then dissolved with DMSO. 5 μl of the diluted sample solution and 5 μl of DMSO vehicle were added therein and mixed, and the mixture was cultured at 37° C. in CO2 incubator for 15 minutes. Arachidonic acid as a substrate was dissolved in ethanol to prepare a stock solution with a concentration of 10 mM, followed by diluting with 1×HBSS to prepare the solution of 1 mM. 10 μl of 1 mM Arachidonic acid solution was added to each of the treated wells and the mixture was cultured at 37° C. in CO2 incubator for 30 minutes. The cell solution of each well was collected in the centrifuge tube and centrifuged at 4° C., for 5 minutes at 10,000 rpm. As PGE2 existed in the supernatant separated from collected cell, the concentration of PGE2 was quantitated by using monoclonal kit from Cayman Chemicals, and the concentration of samples and vehicle were compared to estimate the inhibition ratio (%) of each compound against cyclooxygenase-1. Ultimately, the inhibition effect against the cyclooxygenase-1 enzyme was obtained from the result.

| Inhibitory effects of cyclooxygenase (COX): COX-2 (Raw 264.7) (cyclooxygenase-2; 30 nM) [% inhibition] | Inhibitory effects of cyclooxygenase (COX): COX-2 (Raw 264.7) (cyclooxygenase-2; 100 nM) [% inhibition] | Inhibitory effects of cyclooxygenase (COX): COX-2 (Raw 264.7) (cyclooxygenase-2; 300 nM) [% inhibition] | selectivity of cyclooxygenase-2 compared with standard substance (cyclooxygenase-2; in words) | Inhibitory effects of cyclooxygenase (COX): COX-1 (U-937) (cyclooxygenase-1; 1 μM) [% inhibition] | Inhibitory effects of cyclooxygenase (COX): COX-1 (U-937) (cyclooxygenase-1; 3 μM) [% inhibition] | Inhibitory effects of cyclooxygenase (COX): COX-1 (U-937) (cyclooxygenase-1; 10 μM) [% inhibition] | SMILES | inhibition effect against cyclooxygenase-1 compared with standard substance SC-58635 (cyclooxygenase-1) | inhibition effect against cyclooxygenase-2 compared with standard substance SC-58635 (cyclooxygenase-2; in words, low concentration, same condition as SC-58635) |
| --- | --- | --- | --- | --- | --- | --- | --- | --- | --- |
| 15.8 | 28.5 | 40.8 | – | 12.2 | 15.6 | 17.0 | CC(C)=CCOc1cccnc1-c1ccc(S(C)(=O)=O)nc1 [Example 4, 6′-methylsulfonyl-3-(3-methyl-2-butenyloxy)-2,3′-bipyridinyl] | – | – |
| 10.3 | 11.01 | 20.1 | hardly different | 13.5 | 16.2 | 18.9 | C[C@H](CO)COc1cccnc1-c1ccc(S(C)(=O)=O)nc1 [Example 5, (R)-3-(6′-methylsulfonyl-2,3′-bipyridine-3-yloxy)-2-methyl-1-propanol] | much lower level than a comparative substance | – |
| 9.3 | 12.0 | 21.0 | hardly different | 14.3 | 17.2 | 24.5 | C[C@@H](CO)COc1cccnc1-c1ccc(S(C)(=O)=O)nc1 [Example 6, (S)-3-(6′-methylsulfonyl-2,3′-bipyridine-3-yloxy)-2-methyl-1-propanol] | much lower level than a comparative substance | – |

The next lines start with the molecule.

| SMILES | Inhibitory effects of cyclooxygenase (COX): COX-2 (Raw 264.7) (cyclooxygenase-2; 30 nM) [% inhibition] | Inhibitory effects of cyclooxygenase (COX): COX-2 (Raw 264.7) (cyclooxygenase-2; 100 nM) [% inhibition] | Inhibitory effects of cyclooxygenase (COX): COX-2 (Raw 264.7) (cyclooxygenase-2; 300 nM) [% inhibition] | selectivity of cyclooxygenase-2 compared with standard substance (cyclooxygenase-2; in words) | Inhibitory effects of cyclooxygenase (COX): COX-1 (U-937) (cyclooxygenase-1; 1 μM) [% inhibition] | Inhibitory effects of cyclooxygenase (COX): COX-1 (U-937) (cyclooxygenase-1; 3 μM) [% inhibition] | Inhibitory effects of cyclooxygenase (COX): COX-1 (U-937) (cyclooxygenase-1; 10 μM) [% inhibition] | inhibition effect against cyclooxygenase-1 compared with standard substance SC-58635 (cyclooxygenase-1) | inhibition effect against cyclooxygenase-2 compared with standard substance SC-58635 (cyclooxygenase-2; in words, low concentration, same condition as SC-58635) |
| --- | --- | --- | --- | --- | --- | --- | --- | --- | --- |
| CC(C)Oc1cccnc1-c1ccc(S(C)(=O)=O)nc1 [Example 1, 3-isopropyloxy-6′-methylsulfonyl-2,3′-bipyridinyl] | 10.2 | 14.2 | 15.2 | hardly different | 0.2 | 7.5 | 11.0 | much lower level than a comparative substance | – |
| CS(=O)(=O)c1ccc(-c2ncccc2OC2CCCC2)cn1 [Example 2, 3-cyclopentyloxy-6′-methylsulfonyl-2,3′-bipyridinyl] | 40.3 | 53.2 | 63.5 | better than any other standard substances | 12.7 | 14.3 | 21.0 | much lower level than standard substance | more excellent in low concentration than standard substance |
| CS(=O)(=O)c1ccc(-c2ncccc2OC2CCCCC2)cn1 [Example 3, 3-cyclohexyloxy-6′-methylsulfonyl-2,3′-bipyridinyl] | 23.5 | 30.2 | 42.2 | – | 11.2 | 12.5 | 14.0 | – | – |

— US6946558B2 (CJ Corp., priority 2001, dated 2005)
